Measured values: publication PMC7901654, “Bioisosteric Discovery of NPA101.3, a Second-Generation RET/VEGFR2 Inhibitor Optimized for Single-Agent Polypharmacology” (Journal of Medicinal Chemistry, 2020)
Entries after “also recorded” stand apart in the source; their conditions may differ.

Tests used:
[1] = test system: NIH3T3 HRAS/G12V tumors; assay: Mouse xenograft, NIH3T3 HRAS/G12V; assay type: in vivo
Experimental: In vivo target (RET and VEGFR2) inhibition was studied by treating animals grafted with NIH3T3 RET/C634Y cells at different doses (0.3, 1, or 3 mg/kg/day p.o.) of NPA101.3 for 2 days and then performing Western blot analysis on protein extracts. […] Then, to determine antitumorigenic activity and to better distinguish RET- and VEGFR2-mediated effects, we tested NPA101.3 in nude mice transplanted with NIH3T3 cells transformed by either RET/C634Y or HRAS/G12V. Before tumors appeared, animals were treated daily with NPA101.3 (1.0, 3.0, or 10.0 mg/kg/day) or left untreated. […] Still, VEGFR2 inhibition was detected also in RAS-driven tumors, an effect that might explain the, albeit reduced, effect of the drug on their growth (Figure S13). Importantly, as predicted, no trace of NPA101.3 demethyl metabolites was detected after 1 or 4 h from oral dosing in mice (Figure S14).
Figure 6 Effects of NPA101.3 on in vivo tumor growth. NIH3T3 cells transformed by RET/C634Y or HRAS/G12V were inoculated subcutaneously into nu/nu mice. After 4 days, animals were randomly assigned to receive for the indicated time periods the compound (1.0, 3.0, or 10 mg/kg/day) (24 mice; 8 mice/group for 1, 3, and 10 mg/kg doses) or vehicle (8 mice) by oral gavage. The average size of tumors is reported ± SD.
NPA101.3 was dissolved in 80% H2O, 19.875% Tween 20, and 0.125% xanthan gum. The formulation was stored at room temperature and vortexed prior to administration. NIH3T3 RET/C634Y (200000) or NIH3T3 HRAS/G12V (50000) cells were inoculated subcutaneously into the dorsal portion (both sides) of 6-week-old female BALB/c nu/nu mice (32 mice/cell line) (Jackson Laboratories, Bar Harbor, ME). After 4 days, before tumors had appeared, animals were randomly assigned to receive NPA101.3 (1.0, 3.0, or 10 mg/kg/day) (8 mice/group) or vehicle control (8 mice) by oral gavage. Tumor diameters were measured with caliper every 2–3 days. Tumor volumes (V) were calculated by the rotational ellipsoid formula V = A × B^2/2 (A is the axial diameter, and B is the rotational diameter). […]

[2] = biological target: T1, BTK (Homo sapiens, UniProt Q06187); assay: KinomeScan panel screen; assay type: binding; details: 100 nM, read-out: Percent Control
T1 construct: purchased DiscoveRx KINOMEscan (TRKA and CSF1R IC50 enzymes from Invitrogen)
Experimental: (§1) In addition, NPA101.3, at a concentration of 100 nM, was subjected to a kinome scan against a 96-kinase panel representing major kinome clusters (Table S2). The compound featured good selectivity, displaying strong binding activity (>90% bound) for only seven additional kinases [CSF1R (colony stimulating factor 1 receptor), FRK (fyn-related Src family tyrosine kinase), HCK (HCK proto-oncogene, Src family tyrosine kinase), LYN (lyn proto-oncogene, Src family tyrosine kinase), MKNK2 (MAPK-interacting serine/threonine kinase 2), TRKA (neurotrophic receptor tyrosine kinase 1), and TRKC (neurotrophic receptor tyrosine kinase 3)] and weak binding (>10–35% bound) for six other kinases (Table S2 and Figure S2). It is important to note that the measurement of binding affinity, which is based on control ligand displacement (Kd), is more sensitive than the in vitro kinase assay. Among the seven kinases with >90% binding, TRKA and CSF1R were selected for an in vitro kinase assay.
(§2) Supplementary Table S2: NPA101.3 KinomeScan Panel screen.
(§3) NPA101.3 was screened at a single concentration of 100 nM. Hits values lower than
(§4) 10% of control were considered strongly positive.
(§5) DiscoveRx Gene Entrez Gene Percent Compound
(§6) Symbol Symbol Control Concentration

[3] = biological target: T2, PYK2 (Homo sapiens, UniProt Q14289); assay: KinomeScan panel screen; assay type: binding; details: PYK2, 100 nM; read-out: Percent Control
T2 construct: purchased DiscoveRx KINOMEscan (TRKA and CSF1R IC50 enzymes from Invitrogen)
Experimental: as §1, §2, §3, §4, §5, §6

[4] = biological target: T3, IKK-beta (Homo sapiens, UniProt O14920); assay: KinomeScan panel screen; assay type: binding; details: 100 nM, read-out: Percent Control
T3 construct: purchased DiscoveRx KINOMEscan (TRKA and CSF1R IC50 enzymes from Invitrogen)
T3 sequence (O14920 whole entry): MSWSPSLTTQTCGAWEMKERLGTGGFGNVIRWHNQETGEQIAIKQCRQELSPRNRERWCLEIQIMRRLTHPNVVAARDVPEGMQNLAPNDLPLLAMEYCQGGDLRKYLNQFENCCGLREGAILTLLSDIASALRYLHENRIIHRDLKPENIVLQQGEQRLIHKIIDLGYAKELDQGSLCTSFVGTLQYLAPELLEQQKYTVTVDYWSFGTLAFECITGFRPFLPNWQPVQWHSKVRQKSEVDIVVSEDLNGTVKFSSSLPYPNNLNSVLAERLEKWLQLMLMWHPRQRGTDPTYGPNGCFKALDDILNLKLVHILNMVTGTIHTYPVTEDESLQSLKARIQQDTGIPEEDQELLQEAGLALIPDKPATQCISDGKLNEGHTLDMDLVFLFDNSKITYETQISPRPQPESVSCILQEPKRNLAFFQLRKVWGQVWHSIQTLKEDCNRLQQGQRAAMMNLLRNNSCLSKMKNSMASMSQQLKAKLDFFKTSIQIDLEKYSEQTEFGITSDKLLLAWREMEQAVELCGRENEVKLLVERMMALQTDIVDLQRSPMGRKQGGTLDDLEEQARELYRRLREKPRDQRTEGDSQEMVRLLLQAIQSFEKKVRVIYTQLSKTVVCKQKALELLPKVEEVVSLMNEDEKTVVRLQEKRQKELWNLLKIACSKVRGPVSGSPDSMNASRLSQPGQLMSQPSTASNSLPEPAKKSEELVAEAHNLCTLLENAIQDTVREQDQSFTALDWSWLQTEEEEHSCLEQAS
Experimental: as §1, §2, §3, §4, §5, §6

[5] = biological target: T4, DLK (Homo sapiens, UniProt Q12852); assay: KinomeScan panel screen; assay type: binding; details: 100 nM, read-out: Percent Control
T4 construct: purchased DiscoveRx KINOMEscan (TRKA and CSF1R IC50 enzymes from Invitrogen)
T4 sequence (Q12852 whole entry): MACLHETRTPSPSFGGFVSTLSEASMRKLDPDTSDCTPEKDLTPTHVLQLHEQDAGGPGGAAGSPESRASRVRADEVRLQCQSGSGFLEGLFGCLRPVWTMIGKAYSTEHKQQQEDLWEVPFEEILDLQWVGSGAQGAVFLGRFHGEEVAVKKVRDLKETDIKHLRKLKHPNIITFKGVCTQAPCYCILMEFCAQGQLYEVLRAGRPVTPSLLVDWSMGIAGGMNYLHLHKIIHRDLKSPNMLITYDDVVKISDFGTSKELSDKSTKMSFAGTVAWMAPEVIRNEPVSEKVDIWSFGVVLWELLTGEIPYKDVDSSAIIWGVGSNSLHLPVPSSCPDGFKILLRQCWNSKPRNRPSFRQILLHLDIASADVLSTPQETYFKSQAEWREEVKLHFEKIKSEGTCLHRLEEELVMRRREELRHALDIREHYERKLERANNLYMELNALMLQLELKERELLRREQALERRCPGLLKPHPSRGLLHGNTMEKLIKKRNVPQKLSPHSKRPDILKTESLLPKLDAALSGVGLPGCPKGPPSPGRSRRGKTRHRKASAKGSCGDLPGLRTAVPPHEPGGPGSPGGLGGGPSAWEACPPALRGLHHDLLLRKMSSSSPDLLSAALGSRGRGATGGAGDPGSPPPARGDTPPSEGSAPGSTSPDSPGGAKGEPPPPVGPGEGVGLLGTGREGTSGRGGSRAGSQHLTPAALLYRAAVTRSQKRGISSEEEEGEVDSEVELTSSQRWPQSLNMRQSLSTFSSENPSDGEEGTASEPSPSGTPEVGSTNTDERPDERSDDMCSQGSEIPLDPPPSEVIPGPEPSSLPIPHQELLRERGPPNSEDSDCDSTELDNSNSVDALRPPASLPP
Experimental: as §1, §2, §3, §4, §5, §6

[6] = biological target: T5, JNK2 (Homo sapiens, UniProt P45984); assay: KinomeScan panel screen; assay type: binding; details: JNK2, 100 nM; read-out: Percent Control
T5 construct: purchased DiscoveRx KINOMEscan (TRKA and CSF1R IC50 enzymes from Invitrogen)
T5 sequence (P45984 whole entry): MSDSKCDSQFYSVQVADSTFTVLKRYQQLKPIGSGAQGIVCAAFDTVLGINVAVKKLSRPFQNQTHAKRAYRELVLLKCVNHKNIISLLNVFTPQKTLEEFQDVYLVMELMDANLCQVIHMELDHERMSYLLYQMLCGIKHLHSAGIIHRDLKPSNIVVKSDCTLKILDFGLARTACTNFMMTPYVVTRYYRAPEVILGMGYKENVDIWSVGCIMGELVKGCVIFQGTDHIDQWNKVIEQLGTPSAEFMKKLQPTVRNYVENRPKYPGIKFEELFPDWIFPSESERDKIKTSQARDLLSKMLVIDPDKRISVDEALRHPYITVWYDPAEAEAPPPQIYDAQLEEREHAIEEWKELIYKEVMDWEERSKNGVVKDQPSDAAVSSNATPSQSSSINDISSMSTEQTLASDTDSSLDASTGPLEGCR
Experimental: as §1, §2, §3, §4, §5, §6

[7] = biological target: T6, S6K1 (Homo sapiens, UniProt P23443); assay: KinomeScan panel screen; assay type: binding; details: S6K1, 100 nM; read-out: Percent Control
T6 construct: purchased DiscoveRx KINOMEscan (TRKA and CSF1R IC50 enzymes from Invitrogen)
T6 sequence (P23443 whole entry): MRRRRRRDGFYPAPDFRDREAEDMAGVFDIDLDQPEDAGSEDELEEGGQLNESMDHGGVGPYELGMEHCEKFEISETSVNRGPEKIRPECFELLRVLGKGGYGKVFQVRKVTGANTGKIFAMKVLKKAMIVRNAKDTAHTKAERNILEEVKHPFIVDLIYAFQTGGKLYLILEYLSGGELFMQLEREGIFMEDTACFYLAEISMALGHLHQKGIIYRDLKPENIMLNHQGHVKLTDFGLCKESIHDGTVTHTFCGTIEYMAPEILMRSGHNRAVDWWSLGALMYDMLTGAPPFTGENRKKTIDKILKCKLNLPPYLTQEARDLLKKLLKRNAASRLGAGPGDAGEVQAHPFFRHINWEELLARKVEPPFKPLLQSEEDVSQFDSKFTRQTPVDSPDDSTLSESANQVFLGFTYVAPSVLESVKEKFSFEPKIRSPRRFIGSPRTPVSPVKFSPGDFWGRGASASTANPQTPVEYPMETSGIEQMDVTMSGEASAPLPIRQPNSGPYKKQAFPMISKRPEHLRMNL
Experimental: as §1, §2, §3, §4, §5, §6

[8] = biological target: T7, PIK3C2B (Homo sapiens, UniProt O00750); assay: KinomeScan panel screen; assay type: binding; details: 100 nM, read-out: Percent Control
T7 construct: purchased DiscoveRx KINOMEscan (TRKA and CSF1R IC50 enzymes from Invitrogen)
Experimental: as §1, §2, §3, §4, §5, §6

[9] = biological target: T8, AURKA (Homo sapiens, UniProt O14965); assay: KinomeScan panel screen; assay type: binding; details: 100 nM, read-out: Percent Control
T8 construct: purchased DiscoveRx KINOMEscan (TRKA and CSF1R IC50 enzymes from Invitrogen)
T8 sequence (O14965 whole entry): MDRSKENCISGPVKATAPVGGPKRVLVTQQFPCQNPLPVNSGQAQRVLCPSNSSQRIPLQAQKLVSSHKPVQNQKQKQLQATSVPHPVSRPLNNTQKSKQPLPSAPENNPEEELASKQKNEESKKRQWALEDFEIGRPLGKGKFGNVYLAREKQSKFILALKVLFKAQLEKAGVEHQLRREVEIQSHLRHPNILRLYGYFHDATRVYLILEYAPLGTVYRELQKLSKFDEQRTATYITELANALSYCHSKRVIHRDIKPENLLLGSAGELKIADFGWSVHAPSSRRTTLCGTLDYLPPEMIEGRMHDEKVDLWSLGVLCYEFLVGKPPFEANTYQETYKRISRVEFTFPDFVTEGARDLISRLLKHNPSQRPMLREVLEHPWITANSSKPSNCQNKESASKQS
Experimental: as §1, §2, §3, §4, §5, §6

[10] = biological target: T9, MELK (Homo sapiens, UniProt Q14680); assay: KinomeScan panel screen; assay type: binding; details: 100 nM, read-out: Percent Control
T9 construct: purchased DiscoveRx KINOMEscan (TRKA and CSF1R IC50 enzymes from Invitrogen)
Experimental: as §1, §2, §3, §4, §5, §6

[11] = biological target: T10, LTK (Homo sapiens, UniProt P29376); assay: KinomeScan panel screen; assay type: binding; details: 100 nM, read-out: Percent Control
T10 construct: purchased DiscoveRx KINOMEscan (TRKA and CSF1R IC50 enzymes from Invitrogen)
T10 sequence (P29376 17-864): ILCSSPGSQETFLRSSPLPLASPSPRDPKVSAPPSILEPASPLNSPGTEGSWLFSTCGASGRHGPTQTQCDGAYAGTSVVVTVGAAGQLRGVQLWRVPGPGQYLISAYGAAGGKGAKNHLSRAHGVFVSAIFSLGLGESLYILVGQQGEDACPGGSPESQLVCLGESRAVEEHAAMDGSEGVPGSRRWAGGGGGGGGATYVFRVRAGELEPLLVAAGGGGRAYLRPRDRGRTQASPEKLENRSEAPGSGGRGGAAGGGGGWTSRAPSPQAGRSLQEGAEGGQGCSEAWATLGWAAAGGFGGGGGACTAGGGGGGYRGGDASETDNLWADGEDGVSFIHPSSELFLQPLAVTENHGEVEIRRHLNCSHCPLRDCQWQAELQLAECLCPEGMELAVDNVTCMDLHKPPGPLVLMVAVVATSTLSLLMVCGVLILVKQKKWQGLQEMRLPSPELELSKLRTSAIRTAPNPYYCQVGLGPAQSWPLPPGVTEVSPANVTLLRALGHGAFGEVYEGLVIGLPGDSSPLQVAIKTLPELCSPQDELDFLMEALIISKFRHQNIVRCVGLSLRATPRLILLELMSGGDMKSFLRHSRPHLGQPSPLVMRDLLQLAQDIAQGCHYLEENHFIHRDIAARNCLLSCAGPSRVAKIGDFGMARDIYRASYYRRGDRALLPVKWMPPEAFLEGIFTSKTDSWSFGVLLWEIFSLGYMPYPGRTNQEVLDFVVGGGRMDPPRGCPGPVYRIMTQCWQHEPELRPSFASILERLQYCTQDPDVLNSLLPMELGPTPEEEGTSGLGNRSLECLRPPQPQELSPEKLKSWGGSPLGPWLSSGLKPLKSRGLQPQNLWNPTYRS
Experimental: as §1, §2, §3, §4, §5, §6

[12] = biological target: T11, BRSK2 (Homo sapiens, UniProt Q8IWQ3); assay: KinomeScan panel screen; assay type: binding; details: BRSK2, 100 nM; read-out: Percent Control
T11 construct: purchased DiscoveRx KINOMEscan (TRKA and CSF1R IC50 enzymes from Invitrogen)
Experimental: as §1, §2, §3, §4, §5, §6

[13] = biological target: T12, AKT1 (Homo sapiens, UniProt P31749); assay: KinomeScan panel screen; assay type: binding; details: AKT1, 100 nM; read-out: Percent Control
T12 construct: purchased DiscoveRx KINOMEscan (TRKA and CSF1R IC50 enzymes from Invitrogen)
T12 sequence (P31749 whole entry): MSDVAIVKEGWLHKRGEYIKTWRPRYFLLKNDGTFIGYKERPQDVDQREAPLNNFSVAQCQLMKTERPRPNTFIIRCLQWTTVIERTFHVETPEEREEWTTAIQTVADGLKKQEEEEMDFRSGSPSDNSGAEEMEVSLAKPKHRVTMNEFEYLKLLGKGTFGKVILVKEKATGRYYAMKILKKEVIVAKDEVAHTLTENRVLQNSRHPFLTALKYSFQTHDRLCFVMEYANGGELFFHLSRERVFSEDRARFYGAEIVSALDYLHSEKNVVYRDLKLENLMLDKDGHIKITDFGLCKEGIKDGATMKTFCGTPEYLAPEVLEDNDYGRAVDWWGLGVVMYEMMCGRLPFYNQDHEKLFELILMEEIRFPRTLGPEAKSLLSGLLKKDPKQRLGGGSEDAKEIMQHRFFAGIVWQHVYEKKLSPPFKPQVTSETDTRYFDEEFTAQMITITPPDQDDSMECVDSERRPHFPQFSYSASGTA
Experimental: as §1, §2, §3, §4, §5, §6

[14] = biological target: T13, LIMK2 (Homo sapiens, UniProt P53671); assay: KinomeScan panel screen; assay type: binding; details: LIMK2, 100 nM; read-out: Percent Control
T13 construct: purchased DiscoveRx KINOMEscan (TRKA and CSF1R IC50 enzymes from Invitrogen)
T13 sequence (P53671 whole entry): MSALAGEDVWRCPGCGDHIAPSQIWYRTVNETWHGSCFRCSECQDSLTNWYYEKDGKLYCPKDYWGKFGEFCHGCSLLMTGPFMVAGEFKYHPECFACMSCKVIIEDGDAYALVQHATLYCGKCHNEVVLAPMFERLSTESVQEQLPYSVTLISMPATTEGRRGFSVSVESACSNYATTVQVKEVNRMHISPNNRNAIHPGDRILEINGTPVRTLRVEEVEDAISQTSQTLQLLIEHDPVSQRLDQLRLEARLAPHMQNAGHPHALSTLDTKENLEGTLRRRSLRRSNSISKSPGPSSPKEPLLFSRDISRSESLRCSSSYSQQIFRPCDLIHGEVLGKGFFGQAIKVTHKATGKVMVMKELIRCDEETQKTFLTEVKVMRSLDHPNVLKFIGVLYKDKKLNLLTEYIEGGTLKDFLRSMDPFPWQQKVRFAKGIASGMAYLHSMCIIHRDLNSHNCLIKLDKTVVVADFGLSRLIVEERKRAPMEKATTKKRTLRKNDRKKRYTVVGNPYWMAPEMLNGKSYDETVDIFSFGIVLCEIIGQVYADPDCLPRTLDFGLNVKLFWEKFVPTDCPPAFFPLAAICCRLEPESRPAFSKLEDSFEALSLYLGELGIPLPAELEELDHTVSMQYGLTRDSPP
Experimental: as §1, §2, §3, §4, §5, §6

With `CC(C)(C)c1cc(NC(=O)Cc2ccc(-n3cnc4cc(-c5ccc(S(C)(=O)=O)cc5)ccc43)cc2)no1` [NPA101.3] the “formation of tumors driven by HRAS/G12V” value ([1]; 10 mg/kg/day oral, nu/nu mice) was “weakened, but did not abrogate; also recorded: reduced, but did not abrogate”, the “RAS signaling (MAPK phosphorylation) in NIH3T3 HRAS/G12V tumors” value ([1]; 3 h after last dose) was “virtually no effect” and the “VEGFR2 inhibition in RAS-driven tumors” value ([1]; 3 h after last dose) was “detected”. The remaining binding at 0.1 µM [2] was 93%, the remaining binding at 0.1 µM [3] was 95% and the remaining binding at 0.1 µM [4] was 100%. For the same compound, the remaining binding at 0.1 µM [5] was 100%, the remaining binding at 0.1 µM [6] was 78% and the remaining binding at 0.1 µM [7] was 100%. For the same compound, the remaining binding at 0.1 µM [8] was 100%, the remaining binding at 0.1 µM [9] was 100% and the remaining binding at 0.1 µM [10] was 83%. For the same compound, the remaining binding at 0.1 µM [11] was 61%, the remaining binding at 0.1 µM [12] was 100% and the remaining binding at 0.1 µM [13] was 100%. It also gave a remaining binding at 0.1 µM [14] of 94%.
